Source: patent publication US20070248680A1, “Particles for Inactivating Toxins” (Board of Regents, The University of Texas System, priority 2005, published 2007)
Entries after “also recorded” stand apart in the source; their conditions may differ.

What was measured:
[1] = Persistence of FITC-BSA tagged particles in blood after intravenous introduction (fluorometry); format: in vivo; details: Balb/C mice, about 5.0 micrometer particles
Procedure: One feature of the present invention is that a particle preparation of the present invention is capable of remaining in the host for a length of time, longer than proteins, antibodies, vaccines, or antimicrobials are known to last in a mammalian host. […] Particle were tagged by conjugating with FITC-labeled bovine serum albumin (BSA) protein. […] The amount of BSA present in each sample was assessed by fluorometry. The tagged particles in FIG. 5A were FITC-BSA conjugated to NIPA particles of about 5.0 micrometers (typical diameter). […] In addition, greater than 20% of the BSA-NIPA particles were still present in the blood after two weeks.

BSA antibody = experiment: Removal of free BSA antibody from serum of BSA-immunized mice (ELISA); format: in vivo, Balb/C mice; details: for time to removal of circulating BSA antibodies from serum / effect on free and circulating BSA antibody in serum: tail vein injection; for time to removal of circulating BSA antibodies from serum: FIG. 8B; for effect on free and circulating BSA antibody in serum: NIPA about 5 micrometers, PLLA about 10 micrometers, HA about 250 nanometers
From the text: Another feature of the present invention is that selective tagging of particles of the present invention provides for the removal of select and specific unwanted products or toxins (e.g., unwanted proteins or antibodies) from a host. […] Following injection, mice (at least five mice per group) were sacrificed beginning on day one and continued to day 21. Serum samples from each mouse were recovered via retro-orbital blood collection. Sera was then used to measure the amount of free BSA antibody in the blood by standard enzyme-linked immuno-sorbent assay. FIGS. 8A and 8B are representative examples of the efficacy of specifically tagged particles, in which tagged particles are capable of removing a specific antibody present in serum.

BSA antibodies = experiment: Protein adsorption from BSA antisera onto particles, SDS-PAGE of eluted proteins; format: binding, Balb/C mice; details: serum of BSA-immunized mice, about 2 hours incubation, about 5 micrometer particles
Procedure: Another feature is that a tagged particle of the present invention may specifically recognize proteins or other host components of interest and as desired. For example, tagged particles were made to recover or eliminate BSA antibodies from immunized animals. First, Balb/C mice were immunized with bovine serum albumin (BSA) protein for four weeks to trigger BSA antibody production. Two weeks later, mice were sacrificed and their serum was recovered for analyses. […] After incubation for at least about 2 hours, particles were recovered by centrifugation. From a portion of each sample of recovered particles, proteins were eluted. Particles and eluted proteins were analyzed by SDS-PAGE gel electrophoresis to identify proteins that had adsorbed to the particles.
In FIG. 6, lane 1 is diluted mouse sera in PBS at concentration of 1 mg/mL; lanes 2, 5 and 7 depict proteins eluted from NIPA microparticles preincubated with antisera from three different mice; lanes 3, 4 and 6 depict proteins eluted from NIPA-BSA microparticles preincubated with antisera from three different mice. Lanes 2 and 3 are samples from a first mouse, lanes 4 and 5 are samples from a second mouse, and lanes 6 and 7 are samples from a third mouse.
In another example depicting the specific recognition of tagged particles, a similar immunization strategy was used. […] Eluted proteins were analyzed using SDS-PAGE gel electrophoresis. […]

collagen antibody = experiment: Removal of collagen antibodies from circulation of collagen-immunized mice; format: in vivo, Balb/C mice; details: week 7, one week after intravenous injection of about 2.0 mg particles/0.5 mL; about 100 nanometer NIPA
Procedure: In still another example, Balb/C mice were immunized with bovine skin collagen following a standard immunization procedure as is known to one of ordinary skill in the art. At one week following immunization, mice began to produce antibodies against collagen. At the end of week 6 as depicted by the arrow in FIGS. 9A and 9B, mice were injected intravenously (via the tail vein) with particles tagged with and without bovine Type I collagen. Intravenous doses were about 2.0 mg particles/0.5 mL. FIGS. 9A and 9B are representative examples showing the in vivo efficacy of specifically tagged particles and their ability to remove a particular unwanted antibodies from circulation after allowing the unwanted antibody concentration to accumulate for six weeks. […] Histologic analyses of tissue samples collected from some representative animals, including samples from the kidneys, lung, liver, brain, intestines, heart and spleen, were examined for particles. […] These animals were also able to degrade the particle preparation (predominantly in the liver) and eliminate by-products of the preparation via hydrolysis (data not shown).
In FIG. 9B, the conditions as described for FIG. 9A were repeated using particle preparations tagged comprising HPC particles of 1-5 micrometers (typical diameter) conjugated with collagen (HPC-collagen) or untagged particles (HPC) injected into mice.

Substance | particles still present in the blood after two weeks [1] | time to removal of circulating BSA antibodies from serum (BSA antibody) | effect on free and circulating BSA antibody in serum (BSA antibody) | further results
BSA-HPC: HPC particles (approximately 5.0 micrometers) conjugated to BSA | greater than 20% | – | – | –
BSA-NIPA: FITC-BSA conjugated to NIPA particles of about 5.0 micrometers typical diameter | greater than 20% | less than a week | virtually complete by day 2 | free BSA antibodies in the serum (BSA antibody; tail vein injection at 6 weeks, about 5 micrometer particles, FIG. 8A): < 5%; proteins adsorbed to or recognized by particles (BSA antibodies; listed as BSA-NIPA microparticles): recognized a number of proteins, especially those representing immunoglobulin G; proteins adsorbed to or recognized by particles (BSA antibodies; listed as NIPA-BSA microparticles): recognized more proteins; time remained in the circulation ([1]; FIG. 5A): at least 2 weeks
HA-BSA: HA nanoparticles (approximately 250 nanometers) tagged with BSA | – | less than a week | – | –
NP-Collagen: NIPA particles (approximately 100 nanometers) conjugated with bovine Type I collagen | – | – | – | reduction of collagen antibody concentration (collagen antibody): greater than 75%
PLLA-BSA: PLLA microparticles (approximately 10 micrometer) tagged with BSA | – | less than a week | – | –
bovine serum albumin [BSA, reference compound] | – | – | did little to effect; also recorded: none of the untagged particles (HA, NIPA, PLLA) or BSA alone (BSA) when injected into a host were able to significantly effect | –
